# Strand notation (5' to 3'): a small letter for the sugar, then the base; units joined by * are phosphorothioate-linked, units joined directly phosphodiester-linked; [ ] holds rarer units or linkages, { } end groups; capitals alone tell only the bases. k = constrained ethyl (cEt); [5mC] = 5-methylcytosine; d = 2'-deoxy (DNA)
# Tested on: human SMAD7 mRNA
# Assay: Antisense inhibition of human SMAD7 mRNA expression in Hep3B cells by 3-10-3 cEt gapmers, 10,000 nM, electroporation (Example 2)
# Type: cell-based
# Details: Hep3B cells, 10,000 nM antisense oligonucleotide, electroporation, approximately 24 hours, RT-PCR primer probe set RTS5062, relative to untreated control cells
# In short: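 Hep3B cells (20,000/well) were electroporated with 10,000 nM 3-10-3 cEt gapmer (16-mer, phosphorothioate, 5-methylcytosines) and harvested after about 24 h. SMAD7 mRNA quantified by RT-qPCR with primer probe set RTS5062, normalized to total RNA by RiboGreen; percent inhibition relative to untreated cells.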
row,Substance,% Inhibition [%]
1,798826 (k[5mC]*kT*k[5mC]*d[5mC]*dT*dG*dG*dA*d[5mC]*dA*d[5mC]*dA*dG*kT*kA*kG; antisense) [compound 798826],14
2,800034 (k[5mC]*k[5mC]*kG*d[5mC]*dA*d[5mC]*dG*dA*d[5mC]*dA*dT*d[5mC]*d[5mC]*k[5mC]*k[5mC]*k[5mC]; antisense) [compound 800034],47

# Same assay, conditions: Hep3B cells, electroporation with 10,000 nM antisense oligonucleotide, approximately 24 hours, RTS5062, percent inhibition of SMAD7 mRNA relative to untreated control cells
row,Substance,% Inhibition [%]
1,799277 (antisense k[5mC]*kT*k[5mC]*d[5mC]*dG*dG*dG*d[5mC]*dA*dG*d[5mC]*d[5mC]*dA*kG*kT*kT) [compound 799277],21
2,799309 (antisense kG*k[5mC]*kA*d[5mC]*dG*d[5mC]*dT*d[5mC]*dT*dA*dA*dA*d[5mC]*kA*kG*k[5mC]) [compound 799309],42
3,799803 (kA*kG*kA*dA*dG*dG*dA*dT*dG*dA*dA*dT*dG*kT*kG*kA; antisense) [compound 799803],10
4,799278 (antisense k[5mC]*k[5mC]*k[5mC]*dG*dT*d[5mC]*dT*dG*dG*dG*d[5mC]*dT*d[5mC]*k[5mC]*kG*kG) [compound 799278],14
5,799296 (antisense kG*k[5mC]*kT*dG*dA*d[5mC]*dT*d[5mC]*dG*d[5mC]*dG*dG*d[5mC]*k[5mC]*kT*kT) [compound 799296],45

# Same assay, conditions: Hep3B cells, electroporation with 10,000 nM antisense oligonucleotide, approximately 24 hours, SMAD7 mRNA by RT-PCR (RTS5062), relative to untreated control cells
row,Substance,% Inhibition [%]
1,830066 (kA*kA*kA*dT*dG*dG*dT*dG*d[5mC]*dT*d[5mC]*dT*dG*k[5mC]*k[5mC]*k[5mC]; antisense) [compound 830066],37
2,799474 (antisense k[5mC]*kA*kA*dG*dA*dG*dT*d[5mC]*d[5mC]*dA*dG*d[5mC]*d[5mC]*k[5mC]*kT*kA) [compound 799474],39
3,799966 (antisense kG*kT*kG*dG*dA*dA*dG*dG*d[5mC]*dT*dG*dA*d[5mC]*k[5mC]*kT*kG) [compound 799966],35
4,790458 (k[5mC]*kG*k[5mC]*d[5mC]*dA*dG*dT*d[5mC]*dT*d[5mC]*d[5mC]*d[5mC]*dG*kG*kA*kG; antisense) [compound 790458],0
5,800079 (antisense kT*kA*k[5mC]*d[5mC]*dT*dT*dA*dA*d[5mC]*dA*dA*dA*dG*k[5mC]*kT*kT) [compound 800079],61
6,799349 (kA*kG*k[5mC]*dG*d[5mC]*dA*d[5mC]*dT*d[5mC]*dG*dG*dG*dA*kG*kA*kT; antisense) [compound 799349],0
7,830186 (antisense kA*kG*kG*dT*d[5mC]*d[5mC]*dA*dG*dG*dG*dT*d[5mC]*d[5mC]*kT*k[5mC]*k[5mC]) [compound 830186],50
8,799329 (kG*kT*kA*dT*dG*d[5mC]*dA*d[5mC]*dA*d[5mC]*dT*d[5mC]*dT*k[5mC]*k[5mC]*k[5mC]; antisense) [compound 799329],0
9,798867 (kT*kT*kG*dT*dG*dT*dA*d[5mC]*d[5mC]*dA*dA*d[5mC]*dA*kG*k[5mC]*kG; antisense) [compound 798867],29
10,799389 (antisense kA*kA*kA*dA*d[5mC]*dG*d[5mC]*dA*dG*dG*dA*dG*dG*k[5mC]*kG*kG) [compound 799389],27
11,830054 (kT*kG*kG*dG*dT*dG*dA*dG*dT*dA*dA*d[5mC]*d[5mC]*kA*kG*k[5mC]; antisense) [compound 830054],48
12,799962 (antisense k[5mC]*k[5mC]*kA*dA*d[5mC]*d[5mC]*d[5mC]*d[5mC]*dA*dG*dA*dG*dG*kT*kG*kA) [compound 799962],0
13,799493 (antisense kA*kT*kA*d[5mC]*dA*d[5mC]*dT*dT*dA*dA*dT*d[5mC]*dA*kA*kA*k[5mC]) [compound 799493],1
14,830210 (kG*kA*k[5mC]*d[5mC]*dG*dG*dA*dA*dG*dT*d[5mC]*dT*dT*kG*kT*kA; antisense) [compound 830210],29
15,830116 (k[5mC]*kA*k[5mC]*d[5mC]*d[5mC]*dT*dA*dA*dA*d[5mC]*dT*dG*dA*kG*k[5mC]*k[5mC]; antisense) [compound 830116],11

# Same assay, conditions: Hep3B cells, electroporation with 10,000 nM antisense oligonucleotide, approximately 24 hours, primer probe set RTS5062, relative to untreated control cells
Substance,% inhibition of SMAD7 mRNA expression [%],% Inhibition [%]
798659 (k[5mC]*k[5mC]*k[5mC]*dA*d[5mC]*d[5mC]*d[5mC]*d[5mC]*dG*d[5mC]*dG*d[5mC]*dG*kG*k[5mC]*k[5mC]; antisense) [compound 798659],58,
799150 (antisense k[5mC]*kT*kA*dG*dG*dA*dT*dG*dG*dT*dA*d[5mC]*d[5mC]*kT*kT*kG) [compound 799150],22,
799235 (kG*kA*kA*dA*dA*dA*d[5mC]*dA*dT*dT*d[5mC]*dA*dG*k[5mC]*kT*kA; antisense) [compound 799235],24,
799167 (antisense kA*kA*kG*dA*dA*d[5mC]*dA*dG*dT*dG*dT*d[5mC]*dG*kA*kA*kG) [compound 799167],58,
798941 (antisense kA*kA*kA*dA*dA*dA*dA*d[5mC]*dG*dA*d[5mC]*d[5mC]*dA*kA*kA*kG) [compound 798941],,40
798750 (antisense kA*kG*kG*dA*dG*dG*d[5mC]*dA*d[5mC]*dG*d[5mC]*dG*dG*kT*kG*k[5mC]) [compound 798750],54,
799196 (antisense kG*k[5mC]*kA*d[5mC]*dT*dA*d[5mC]*dA*dA*dT*dG*d[5mC]*dT*kA*kA*kA) [compound 799196],,47
798658 (kA*k[5mC]*k[5mC]*d[5mC]*d[5mC]*dG*d[5mC]*dG*d[5mC]*dG*dG*d[5mC]*d[5mC]*k[5mC]*kG*k[5mC]; antisense) [compound 798658],71,
799012 (kA*kT*kA*dA*dG*dA*dG*dA*d[5mC]*dA*d[5mC]*dA*dA*kA*kA*k[5mC]; antisense) [compound 799012],43,
799228 (k[5mC]*kA*kT*dA*dG*dA*dA*dA*dA*dA*dA*dA*d[5mC]*kA*k[5mC]*k[5mC]; antisense) [compound 799228],,4
798974 (antisense k[5mC]*kT*k[5mC]*dT*dT*d[5mC]*d[5mC]*dT*dA*dT*d[5mC]*dA*dG*kG*kG*kT) [compound 798974],,12
790621 (kG*kT*kG*d[5mC]*dA*dT*d[5mC]*dT*dT*dT*dT*d[5mC]*dT*kT*kT*kA; antisense) [compound 790621],0,
798809 (kT*kT*kG*dG*dG*dA*dA*dT*d[5mC]*dT*dG*dA*dA*kA*kG*k[5mC]; antisense) [compound 798809],2,

# Same assay, conditions: Hep3B cells, electroporation, 10,000 nM antisense oligonucleotide, approximately 24 hours, RTS5062, relative to untreated control cells
row,Substance,% inhibition of SMAD7 mRNA expression [%]
1,799752 (antisense kT*kT*kA*dA*dA*dA*d[5mC]*dT*dG*dA*dG*d[5mC]*dT*kA*kA*kT) [compound 799752],0
2,799516 (antisense k[5mC]*kA*k[5mC]*d[5mC]*dA*dG*dA*dT*d[5mC]*dA*dA*dG*dA*k[5mC]*kA*kG) [compound 799516],0
3,799652 (antisense kA*k[5mC]*kT*d[5mC]*dA*dA*dA*d[5mC]*d[5mC]*dA*dG*dG*dA*k[5mC]*kA*kG) [compound 799652],0
4,799693 (antisense kT*kT*kA*dT*dG*dA*d[5mC]*dA*d[5mC]*dA*dG*dT*dA*kA*k[5mC]*kA) [compound 799693],17
5,799562 (kG*kA*kA*dG*dA*dG*dG*dA*dG*dA*dG*d[5mC]*d[5mC]*kG*kG*kG; antisense) [compound 799562],39
6,799772 (k[5mC]*kG*k[5mC]*d[5mC]*dG*d[5mC]*dG*dG*d[5mC]*dA*dT*dA*dT*kG*k[5mC]*k[5mC]; antisense) [compound 799772],30

# Same assay, conditions: SMAD7 mRNA, Hep3B cells, 10,000 nM antisense oligonucleotide, electroporation, approximately 24 hours, primer probe set RTS5062, relative to untreated control cells
row,Substance,% Inhibition [%]
1,829772 (antisense kA*kG*kG*dA*d[5mC]*dG*dA*dG*dG*dG*d[5mC]*dG*dG*k[5mC]*kT*kG) [compound 829772],52
2,772687 (kA*k[5mC]*k[5mC]*dT*dT*dT*dG*dT*dA*dG*dT*dT*dA*kG*kA*kA; antisense) [compound 772687],46
3,772584 (kG*kA*kA*dG*dT*dT*dG*dG*dG*dA*dA*dT*d[5mC]*kT*kG*kA; antisense) [compound 772584],4

# Same assay, conditions: SMAD7 mRNA, Hep3B cells, electroporation with 10,000 nM antisense oligonucleotide, approximately 24 hours, primer probe set RTS5062, relative to untreated control cells
row,Substance,% Inhibition [%]
1,829853 (antisense kA*k[5mC]*kT*d[5mC]*dT*dT*dG*dT*dT*dG*dT*d[5mC]*d[5mC]*kG*kA*kA) [compound 829853],42
2,829876 (antisense k[5mC]*k[5mC]*kG*dG*dG*dT*dT*dG*dT*d[5mC]*d[5mC]*dA*dG*kT*kG*kT) [compound 829876],30
3,829892 (antisense kG*kA*kT*d[5mC]*dT*dG*d[5mC]*dA*d[5mC]*dG*dG*dT*dA*kA*kA*kG) [compound 829892],32
4,829837 (k[5mC]*k[5mC]*kA*dG*dT*dA*dT*dG*d[5mC]*d[5mC]*dA*d[5mC]*d[5mC]*kA*k[5mC]*kG; antisense) [compound 829837],16
5,830005 (antisense k[5mC]*kT*k[5mC]*dA*d[5mC]*d[5mC]*dA*dG*dT*dT*dG*dG*dT*kT*kT*kG) [compound 830005],13

# Source: patent US10517889B2, “Modulators of SMAD7 expression” (Ionis Pharmaceuticals, Inc., priority 2017, dated 2019)
